pIC50: −log10 of the molar value. ≈ marks a conversion by molar mass, not a printed value. Calls of active or inactive are those of the source. The rule behind the calls is not given here.
What was measured:
Madurella mycetomatis [1] = assay: Antifungal activity against Madurella mycetomatis MM55 at 25 uM by XTT assay; format: functional, organism-based
Madurella mycetomatis [2] = assay: Antifungal activity against Madurella mycetomatis MM55 at 100 uM by XTT assay; format: functional, organism-based
Madurella mycetomatis [3] = assay: Antifungal activity against Madurella mycetomatis MM55 by XTT assay; format: functional, organism-based; conditions: Madurella mycetomatis, MM55
Madurella mycetomatis [4] = assay: Antifungal activity against Madurella mycetomatis Peru72012 by XTT assay; format: functional
[5] = Selectivity index, ratio of IC50 for mouse NIH3T3 cells to IC50 for Madurella mycetomatis MM55; format: toxicity; conditions: read-out: Ratio IC50
Madurella mycetomatis [6] = assay: Antifungal activity against Madurella mycetomatis I1 by XTT assay; format: functional
Madurella mycetomatis [7] = assay: Antifungal activity against Madurella mycetomatis P1 by XTT assay; format: functional
Madurella mycetomatis [8] = assay: Antifungal activity against Madurella mycetomatis I3 by XTT assay; format: functional
Madurella mycetomatis [9] = assay: Antifungal activity against Madurella mycetomatis AL1 by XTT assay; format: functional
Madurella mycetomatis [10] = assay: Antifungal activity against Madurella mycetomatis SO1 by XTT assay; format: functional
[11] = Cytotoxicity against mouse NIH3T3 cells incubated for 5 days by MTT assay; format: toxicity, cell-based
Madurella mycetomatis [12] = assay: Antifungal activity against Madurella mycetomatis MM50 by XTT assay; format: functional
Madurella mycetomatis [13] = assay: Antifungal activity against Madurella mycetomatis CBS247.48 by XTT assay; format: functional
Madurella mycetomatis [14] = assay: Antifungal activity against Madurella mycetomatis I11 by XTT assay; format: functional

Compound: CN1CCN(c2cc(-c3cccc4[nH]ccc34)c3nc(-c4ccc(F)cc4)cn3n2)CC1
- Activity (Madurella mycetomatis [1]): Active
- Activity (Madurella mycetomatis [2]): Active

Compound: CN1CCN(c2cc(-c3ccccc3)c3nc(-c4ccc(F)cc4)cn3n2)CC1
- Activity (Madurella mycetomatis [1]): inactive
- Activity (Madurella mycetomatis [2]): inactive

Compound: CN1CCN(c2cc(-c3cccnc3)c3nc(-c4ccccc4F)cn3n2)CC1
- pIC50 (Madurella mycetomatis [3]): 4.94
- Activity (Madurella mycetomatis [1]): Active
- Activity (Madurella mycetomatis [2]): Active

Compound: CN1CCN(c2cc(-c3cnn(C)c3)c3nc(-c4ccc(F)cc4)cn3n2)CC1
- Activity (Madurella mycetomatis [1]): Active
- Activity (Madurella mycetomatis [2]): Active

Compound: CN1CCN(c2cc(-c3ccncc3)c3nc(-c4ccc(F)cc4)cn3n2)CC1
- Activity (Madurella mycetomatis [1]): inactive
- Activity (Madurella mycetomatis [2]): Active

Compound: CN1CCN(c2cc(-c3ccoc3)c3nc(-c4ccc(F)cc4)cn3n2)CC1
- Activity (Madurella mycetomatis [1]): inactive
- Activity (Madurella mycetomatis [2]): Active

Compound: CN1CCN(c2cc(-c3cccc4[nH]ccc34)c3nc(-c4ccccc4)cn3n2)CC1
- Activity (Madurella mycetomatis [1]): Active
- Activity (Madurella mycetomatis [2]): Active

Compound: CN1CCN(c2cc(Br)c3nc(-c4ccc(F)cc4)cn3n2)CC1
- Activity (Madurella mycetomatis [1]): inactive
- Activity (Madurella mycetomatis [2]): inactive

Compound: CN1CCN(c2cc(-c3ccnn3C)c3nc(-c4ccc(F)cc4)cn3n2)CC1
- Activity (Madurella mycetomatis [1]): inactive
- Activity (Madurella mycetomatis [2]): Active

Compound: CN1CCN(c2cc(-c3cccnc3)c3nc(-c4cccc(F)c4)cn3n2)CC1
- pIC50 (Madurella mycetomatis [3]): 4.93
- Activity (Madurella mycetomatis [1]): Active
- Activity (Madurella mycetomatis [2]): Active

Compound: CN1CCN(c2cc(-c3cnc(N4CCN(C)CC4)nc3)c3nc(-c4ccccc4)cn3n2)CC1
- MIC (Madurella mycetomatis [4]): 8 µM (≈ 3.76 µg/mL)
- selectivity ratio [5]: 16
- MIC (Madurella mycetomatis [6]): 8 µM (≈ 3.76 µg/mL)
- pIC50 (Madurella mycetomatis [3]): 5.70
- MIC (Madurella mycetomatis [3]): 2 µM (≈ 0.939 µg/mL)
- MIC (Madurella mycetomatis [7]): 8 µM (≈ 3.76 µg/mL)
- MIC (Madurella mycetomatis [8]): 8 µM (≈ 3.76 µg/mL)
- MIC (Madurella mycetomatis [9]): 8 µM (≈ 3.76 µg/mL)
- MIC (Madurella mycetomatis [10]): 16 µM (≈ 7.51 µg/mL)
- IC50 at 5 days [11]: 14.3 µM
- MIC (Madurella mycetomatis [12]): 8 µM (≈ 3.76 µg/mL)
- MIC (Madurella mycetomatis [13]): 8 µM (≈ 3.76 µg/mL)
- MIC (Madurella mycetomatis [14]): 8 µM (≈ 3.76 µg/mL)

Compound: CN1CCN(c2cc(-c3cccnc3)c3nc(-c4ccc(F)cc4)cn3n2)CC1
- pIC50 (Madurella mycetomatis [3]): < 4.80
- Activity (Madurella mycetomatis [1]): Active
- Activity (Madurella mycetomatis [2]): Active

Compound: CN1CCN(c2cc(-c3ccsc3)c3nc(-c4cccc(F)c4)cn3n2)CC1
- MIC (Madurella mycetomatis [4]): 8 µM (≈ 3.15 µg/mL)
- selectivity ratio [5]: 2.5
- MIC (Madurella mycetomatis [6]): 8 µM (≈ 3.15 µg/mL)
- pIC50 (Madurella mycetomatis [3]): 5.68
- MIC (Madurella mycetomatis [3]): 8 µM (≈ 3.15 µg/mL)
- MIC (Madurella mycetomatis [7]): 8 µM (≈ 3.15 µg/mL)
- MIC (Madurella mycetomatis [8]): 8 µM (≈ 3.15 µg/mL)
- MIC (Madurella mycetomatis [9]): 8 µM (≈ 3.15 µg/mL)
- MIC (Madurella mycetomatis [10]): 8 µM (≈ 3.15 µg/mL)
- IC50 at 5 days [11]: 11.9 µM
- MIC (Madurella mycetomatis [12]): 8 µM (≈ 3.15 µg/mL)
- MIC (Madurella mycetomatis [13]): 8 µM (≈ 3.15 µg/mL)
- MIC (Madurella mycetomatis [14]): 8 µM (≈ 3.15 µg/mL)

Compound: CN1CCN(c2cc(-c3ccsc3)c3nc(-c4ccc(F)cc4)cn3n2)CC1
- Activity (Madurella mycetomatis [1]): Active
- Activity (Madurella mycetomatis [2]): Active

Compound: CN1CCN(c2cc(-c3cccc4[nH]ccc34)c3nc(-c4cccc(F)c4)cn3n2)CC1
- MIC (Madurella mycetomatis [4]): 16 µM (≈ 6.82 µg/mL)
- selectivity ratio [5]: 4.8
- MIC (Madurella mycetomatis [6]): 16 µM (≈ 6.82 µg/mL)
- pIC50 (Madurella mycetomatis [3]): 5.74
- MIC (Madurella mycetomatis [3]): 8 µM (≈ 3.41 µg/mL)
- MIC (Madurella mycetomatis [7]): 8 µM (≈ 3.41 µg/mL)
- MIC (Madurella mycetomatis [8]): 8 µM (≈ 3.41 µg/mL)
- MIC (Madurella mycetomatis [9]): 8 µM (≈ 3.41 µg/mL)
- MIC (Madurella mycetomatis [10]): 16 µM (≈ 6.82 µg/mL)
- IC50 at 5 days [11]: 10.1 µM
- MIC (Madurella mycetomatis [12]): 8 µM (≈ 3.41 µg/mL)
- MIC (Madurella mycetomatis [13]): 8 µM (≈ 3.41 µg/mL)
- MIC (Madurella mycetomatis [14]): 8 µM (≈ 3.41 µg/mL)

— ChEMBL document CHEMBL5614400, “Emerging therapeutics: The imidazo[1,2-b]pyridazine scaffold as a novel drug candidate for eumycetoma, a neglected tropical disease” (Eur J Med Chem, 2024)
